Entries after “also recorded” stand apart in the source; their conditions may differ.
Columns and labels:
[1] = tested on: JNKs; assay: JNKs phosphorylation in differentiated 3T3-L1 adipocytes (Western blotting); assay type: cell-based; conditions: for basal level of phosphorylation of JNKs: inhibitor 1 μM alone, absence of ET-1; for ET-1-stimulated phosphorylation of JNKs: inhibitor 1 μM pretreated 1 hour, then 100 nM ET-1 for 5 or 15 minutes
Method: (§1) Referring to FIGS. 2A, 2B, 2C, 2D, and 2E which are presented to detect the time-dependent effect of ET-1 on ET-1 signaling molecules, including ERK1 /2, JNKs, p38, […] or STAT3 proteins, the differentiated 3T3-L1 adipocytes are treated with or without 100 nM ET-1 at different time points, such as 2, 5, 15, 30, 120, and 240 minutes. After ET-1 incubation, the total protein amounts and the phosphorylation levels of each ET-1 signaling molecule are determined by Western blotting analysis.
(§2) Referring to FIGS. 3A, 3B, and 3C which are presented to further study the endothelin receptor-dependent of ET-1 on the phosphorylation of downstream signaling molecules and on resistin mRNA expression, the differentiated 3T3-L1 adipocytes are pretreated with or without either 1 μM BQ610 (an ETAR inhibitor) or 1 μM BQ788 (an endothelin type B receptor (ETBR) inhibitor) for 1 hour, and then incubated with 100 nM ET-1. After different time points of ET-1 treatment, ET-1 signaling molecules, such as ERK1/2, JNKs, P38, AKT, and STAT3 proteins, and resistin mRNA levels are determined by Western blotting analysis and PCR analysis, respectively. FIG. 3A, 3B, and 3C are presented with or without 5, 15, and 120 minutes of 100 nM ET-1 treatments, respectively.
(§3) Referring to FIGS. 4A, 4B, 4C, 4D, and 4E which are presented to study the effect of the inhibitors of ET-1 signaling molecules, the differentiated 3T3-L1 adipocytes are pretreated with or without the specific inhibitors of ERK1/2, JNK, AKT, STAT3, or p38 for 30 minutes and then incubated with 100 nM ET-1. These inhibitors comprise 1,4-diamino-2,3-dicyano-1,4-bis [2-aminophenylthio]butadiene (U0126, 25 μM; an ERK1/2 inhibitor), 2-(2-Amino-3-methoxyphenyl)-4H-1-benzopyran-4-one (PD98059, 50 μM; an ERK1/2 inhibitor), anthrapyrazolone (SP600125, 20 μM; a JNK inhibitor), SB203580 (20 μM; a p38 inhibitor), 2-(4-morpholinyl)-8-phenyl-4H-1-benzopyran-4-one (LY294002, 50 μM; a PI3K/AKT inhibitor), wortmannin (0.2 μM; a PI3K/AKT inhibitor), and tyrphostin (AG490, 20 μM; a STAT3 inhibitor). After 5, 15 and 120 minutes of 100-nM ET-1 treatment, the total amounts and the phosphorylation level of the above ET-1 signaling molecules corresponding to the ET-1 stimulated increases in resistin mRNA level are determined by Western blotting analysis.

[2] = tested on: ERK1/2; assay: ERK1/2 phosphorylation in differentiated 3T3-L1 adipocytes (Western blotting); assay type: cell-based; conditions: for basal level of phosphorylation of ERK1/2: inhibitor 1 μM alone, absence of ET-1
Method: as §1, §2, §3

[3] = tested on: AKT; assay: AKT phosphorylation in differentiated 3T3-L1 adipocytes (Western blotting); assay type: cell-based; conditions: for basal level of phosphorylation of AKT: inhibitor 1 μM alone, absence of ET-1
Method: as §1, §2, §3

[4] = tested on: resistin mRNA; assay: resistin mRNA level in differentiated 3T3-L1 adipocytes (RT-PCR, real time-PCR); assay type: cell-based, mouse; conditions: for resistin mRNA level: pretreatment with inhibitor 1 μM alone, no ET-1
Method: Referring to FIGS. 1A and 1B which are presented to detect the time-dependent effect of ET-1 on resistin mRNA level, the differentiated 3T3-L1 adipocytes are treated with 100 nM ET-1 at different time periods, including 0, 0.25, 0.5, 1, 2, 4, 6, 8, 12, and 24 hours, After the treatment, resistin mRNA is analyzed by the respective method of reverse transcription-polymerase chain reaction (RT-PCR) (FIG. 1A) and real time-PCR. The forward and reverse primers are [NT] and [NT] for mouse GAP DH and [NT] and [NT] for mouse resistin, respectively. […] The duration of ET-1 incubation that causes the maximum effect on resistin mRNA levels is 2 hours. Referring to FIGS. 1C and 1D which are presented to detect the concentration-dependent effect of ET-1 on resistin mRNA level, the differentiated 3T3-L1 adipocytes are treated with different concentrations of ET-1, such as 0, 10, 50, and 100 nM. After 2 hours of ET-1 incubation, resistin mRNA levels are determined by RT-PCR (FIG. 1C) and by real time-PCR (FIG. 1D). Levels of resistin mRNA are increased by 50%, 100%, and 200% after 10, 50 and 100 nM ET-1 are respectively added. According to the results, 100 nM ET-1 is used in the following embodiments of the present invention for treatment of the differentiated 3T3-L1 adipocytes. […] After different time points of ET-1 treatment, ET-1 signaling molecules, such as ERK1/2, JNKs, P38, AKT, and STAT3 proteins, and resistin mRNA levels are determined by Western blotting analysis and PCR analysis, respectively.

[5] = tested on: STAT3; assay: STAT3 phosphorylation in differentiated 3T3-L1 adipocytes (Western blotting); assay type: cell-based; conditions: for basal level of phosphorylation of STAT3: inhibitor 1 μM alone, absence of ET-1
Method: as §1, §2, §3

[6] = tested on: p38; assay: p38 phosphorylation in differentiated 3T3-L1 adipocytes (Western blotting); assay type: cell-based
Method: as §1
as §2, with “treatments, respectively. […]” for “treatments, respectively.”

[7] = tested on: resistin protein; assay: resistin protein level in differentiated 3T3-L1 adipocytes (Western blotting); assay type: cell-based
Method: Referring to FIG. 4F which detects the concentration-dependent effect of ET-1 on resistin protein level, the differentiated 3T3-L1 adipocytes are treated with different concentrations of ET-1, such as 0, 10, 50, and 100 nM. After ET-1 incubation, resistin protein levels are determined by Western blotting analysis. Levels of resistin protein are increased by about 120%, 130%, and 140% after 10, 50 and 100 nM ET-1 are respectively added.

[8] = inhibitor 1 μM pretreated 1 hour, then 100 nM ET-1 for 5 or 15 minutes
[9] = inhibitor 1 μM, in the presence and absence of ET-1
[10] = inhibitor 50 μM pretreated 30 minutes, then 100 nM ET-1
[11] = inhibitor 20 μM pretreated 30 minutes, then 100 nM ET-1
[12] = 100 nM ET-1, time points 2-240 minutes
[13] = 100 nM ET-1 alone for 5 minutes or 15 minutes

Compound: CC(C)C[C@H](NC(=O)N1CCCCCC1)C(=O)N[C@H](Cc1cn(C=O)c2ccccc12)C(=O)N[C@H](Cc1c[nH]c2ccccc12)C(=O)O [BQ610]
- basal level of phosphorylation of JNKs [1]: does not alter
- ET-1-stimulated phosphorylation of JNKs [1]: inhibits
- basal level of phosphorylation of ERK1/2 [2]: does not alter
- ET-1-stimulated phosphorylation of ERK1/2 [2, 8]: inhibits
- basal level of phosphorylation of AKT [3]: does not alter
- ET-1-stimulated phosphorylation of AKT [3, 8]: inhibits
- ET-1-stimulated resistin mRNA expression ([4]; inhibitor 1 μM pretreated 1 hour, then 100 nM ET-1 for 120 minutes): suppresses
- resistin mRNA level [4]: does not alter
- basal level of phosphorylation of STAT3 [5]: does not alter
- ET-1-stimulated phosphorylation of STAT3 [5, 8]: inhibits

Compound: CCCC[C@@H](NC(=O)[C@@H](Cc1cn(C(=O)OC)c2ccccc12)NC(=O)[C@H](CC(C)(C)C)NC(=O)N1[C@H](C)CCC[C@@H]1C)C(=O)O [BQ788]
- basal level of phosphorylation of JNKs [1]: does not alter
- ET-1-stimulated phosphorylation of JNKs [1]: does not alter
- total amounts of JNKs protein [1, 9]: does not alter
- basal level of phosphorylation of ERK1/2 [2]: does not alter
- ET-1-stimulated phosphorylation of ERK1/2 [2, 8]: does not alter
- total amounts of ERK1/2 protein [2, 9]: does not alter
- basal level of phosphorylation of AKT [3]: does not alter
- ET-1-stimulated phosphorylation of AKT [3, 8]: does not alter
- total amounts of AKT protein [3, 9]: does not alter
- resistin mRNA level [4]: does not alter
- basal level of phosphorylation of STAT3 [5]: does not alter
- ET-1-stimulated phosphorylation of STAT3 [5, 8]: does not alter
- total amounts of STAT3 protein [5, 9]: does not alter

Compound: O=c1cc(N2CCOCC2)oc2c(-c3ccccc3)cccc12 [LY294002, 2-(4-morpholinyl)-8-phenyl-4H-1-benzopyran-4-one]
- ET-1-stimulated phosphorylation of AKT [3, 10]: inhibited

Compound: COc1cccc(-c2cc(=O)c3ccccc3o2)c1N [PD98059, 2-(2-Amino-3-methoxyphenyl)-4H-1-benzopyran-4-one]
- ET-1-stimulated phosphorylation of ERK1/2 [2, 10]: inhibited

Compound: C[S+]([O-])c1ccc(-c2nc(-c3ccncc3)c(-c3ccc(F)cc3)[nH]2)cc1 (stereo not shown) [SB203580]
- phosphorylation of p38 [6, 11]: not stimulated by ET-1 or inhibited

Compound: N#CC(=C(N)Sc1ccccc1N)C(C#N)=C(N)Sc1ccccc1N [U0126, 1,4-diamino-2,3-dicyano-1,4-bis [2-aminophenylthio]butadiene]
- ET-1-stimulated phosphorylation of ERK1/2 ([2]; inhibitor 25 μM pretreated 30 minutes, then 100 nM ET-1): inhibited

Compound: ET-1: endothelin-1, one of the strongest vasoconstrictors; stimulus used on 3T3-L1 adipocytes
- time of maximum phosphorylation of JNKs [1, 12]: 15 min
- phosphorylation of JNKs [1, 13]: increased phosphorylation
- time of maximum phosphorylation of ERK1/2 [2, 12]: 2 min
- phosphorylation of ERK1/2 [2, 13]: increased phosphorylation
- phosphorylation of AKT [3, 13]: increased phosphorylation
- increase of resistin mRNA levels ([4]; 10 nM ET-1, 2 hours): 50%
- increase of resistin mRNA levels ([4]; 50 nM ET-1, 2 hours): 100%
- increase of resistin mRNA levels ([4]; 100 nM ET-1, 0.25-12 hours after treatment, differentiated 3T3-L1 adipocytes): 100-250%
- increase of resistin mRNA levels ([4]; 100 nM ET-1, 2 hours): 200%
- duration of ET-1 incubation that causes the maximum effect on resistin mRNA levels ([4]; 100 nM ET-1, time course 0-24 hours): 2 h
- phosphorylation of p38 on ET-1 stimulation ([6]; 100 nM ET-1): not altered; also recorded: not stimulated
- increase of resistin protein levels ([7]; 10 nM ET-1): about 120%
- increase of resistin protein levels ([7]; 50 nM ET-1): ~130%
- increase of resistin protein levels ([7]; 100 nM ET-1): ~140%
- phosphorylation of STAT3 [5, 13]: increased phosphorylation

Compound: tyrphostin [AG490]
- ET-1-stimulated phosphorylation of STAT3 [5, 11]: inhibited
